Results from ChEMBL document CHEMBL4804286, “3-amino-4-(4-(4 (dimethylcarbamoyl) phenyl)-1,4-diazepan-1-yl) thieno [2,3-b] pyridine-2-carboxamide for use in cancer therapy and formulations comprising the same” (2020).
Several values for one entry are separate records, joined by “and”; a condition that tells them apart may be missing. Equal entries are not always repeated. Activity calls are given as the source filed them. No cut-off for these calls is given here.

Experiments:
[1] = biological target: Atypical kinase COQ8A, mitochondrial (Homo sapiens) (UniProt Q8NI60); assay: Inhibition of human ADCK3 assessed as percent of control at 2000 nM by KINOMEscan assay relative to control; parameters: scale not given: the % may be the effect or the level left
[2] = biological target: BMP-2-inducible protein kinase (Homo sapiens) (UniProt Q9NSY1); assay: Inhibition of human BIKE assessed as percent of control at 2000 nM by KINOMEscan assay relative to control; parameters: scale not given: the % may be the effect or the level left
[3] = biological target: Calcium/calmodulin-dependent protein kinase type II subunit alpha (Homo sapiens) (UniProt Q9UQM7); assay: Inhibition of human CAMK2A assessed as percent of control at 2000 nM by KINOMEscan assay relative to control; parameters: scale not given: the % may be the effect or the level left
[4] = biological target: Casein kinase I isoform gamma-1 (Homo sapiens) (UniProt Q9HCP0); assay: Inhibition of human CSNK1G1 assessed as percent of control at 2000 nM by KINOMEscan assay relative to control; parameters: scale not given: the % may be the effect or the level left
[5] = biological target: Epidermal growth factor receptor (Homo sapiens) (UniProt P00533); assay: Inhibition of human EGFR assessed as percent of control at 2000 nM by KINOMEscan assay relative to control; parameters: scale not given: the % may be the effect or the level left
[6] = biological target: Fibroblast growth factor receptor 4 (Homo sapiens) (UniProt P22455); assay: Inhibition of human FGFR4 assessed as percent of control at 2000 nM by KINOMEscan assay relative to control; parameters: scale not given: the % may be the effect or the level left
[7] = tested on: Receptor-type tyrosine-protein kinase FLT3 (Homo sapiens), P36888 [UNDEFINED MUTATION]; assay: Inhibition of human FLT3 ITD mutant assessed as percent of control at 2000 nM by KINOMEscan assay relative to control; parameters: scale not given: the % may be the effect or the level left
[8] = tested on: eIF-2-alpha kinase GCN2 (Homo sapiens), Q9P2K8 [S808G]; assay: Inhibition of human GCN2 S808G mutant kinase domain 2 assessed as percent of control at 2000 nM by KINOMEscan assay relative to control; parameters: scale not given: the % may be the effect or the level left
[9] = biological target: Inhibitor of nuclear factor kappa-B kinase subunit alpha (Homo sapiens) (UniProt O15111); assay: Inhibition of human IKK-alpha assessed as percent of control at 2000 nM by KINOMEscan assay relative to control; parameters: scale not given: the % may be the effect or the level left
[10] = biological target: Tyrosine-protein kinase Lck (Homo sapiens) (UniProt P06239); assay: Inhibition of human LCK assessed as percent of control at 2000 nM by KINOMEscan assay relative to control; parameters: scale not given: the % may be the effect or the level left
[11] = biological target: Serine/threonine-protein kinase MARK2 (Homo sapiens) (UniProt Q7KZI7); assay: Inhibition of human MARK2 assessed as percent of control at 2000 nM by KINOMEscan assay relative to control; parameters: scale not given: the % may be the effect or the level left
[12] = tested on: Hepatocyte growth factor receptor (Homo sapiens), P08581 [Y1235D]; assay: Inhibition of human MET Y1235D mutant assessed as percent of control at 2000 nM by KINOMEscan assay relative to control; parameters: scale not given: the % may be the effect or the level left
[13] = biological target: Serine/threonine-protein kinase Nek3 (Homo sapiens) (UniProt P51956); assay: Inhibition of human NEK3 assessed as percent of control at 2000 nM by KINOMEscan assay relative to control; parameters: scale not given: the % may be the effect or the level left
[14] = biological target: Serine/threonine-protein kinase NLK (Homo sapiens) (UniProt Q9UBE8); assay: Inhibition of human NLK assessed as percent of control at 2000 nM by KINOMEscan assay relative to control; parameters: scale not given: the % may be the effect or the level left
[15] = biological target: Serine/threonine-protein kinase pim-3 (Homo sapiens) (UniProt Q86V86); assay: Inhibition of human PIM3 assessed as percent of control at 2000 nM by KINOMEscan assay relative to control; parameters: scale not given: the % may be the effect or the level left
[16] = biological target: Phosphatidylinositol 4-phosphate 5-kinase type-1 alpha (Homo sapiens) (UniProt Q99755); assay: Inhibition of human PIP5K1A assessed as percent of control at 2000 nM by KINOMEscan assay relative to control; parameters: scale not given: the % may be the effect or the level left
[17] = biological target: Phosphatidylinositol 4-phosphate 5-kinase type-1 gamma (Homo sapiens) (UniProt O60331); assay: Inhibition of human PIP5K1C assessed as percent of control at 2000 nM by KINOMEscan assay relative to control; parameters: scale not given: the % may be the effect or the level left
[18] = biological target: Serine/threonine-protein kinase D3 (Homo sapiens) (UniProt O94806); assay: Inhibition of human PRKD3 assessed as percent of control at 2000 nM by KINOMEscan assay relative to control; parameters: scale not given: the % may be the effect or the level left
[19] = biological target: Serine/threonine-protein kinase PRP4 homolog (Homo sapiens) (UniProt Q13523); assay: Inhibition of human PRP4 assessed as percent of control at 2000 nM by KINOMEscan assay relative to control; parameters: scale not given: the % may be the effect or the level left
[20] = biological target: RAF proto-oncogene serine/threonine-protein kinase (Homo sapiens) (UniProt P04049); assay: Inhibition of human RAF1 assessed as percent of control at 2000 nM by KINOMEscan assay relative to control; parameters: scale not given: the % may be the effect or the level left
[21] = tested on: Proto-oncogene tyrosine-protein kinase receptor Ret (Homo sapiens), P07949 [M918T]; assay: Inhibition of human RET M918T mutant assessed as percent of control at 2000 nM by KINOMEscan assay relative to control; parameters: scale not given: the % may be the effect or the level left
[22] = biological target: Ribosomal protein S6 kinase alpha-6 (Homo sapiens) (UniProt Q9UK32); assay: Inhibition of human N-terminal RSK4 kinase domain 1 assessed as percent of control at 2000 nM by KINOMEscan assay relative to control; parameters: scale not given: the % may be the effect or the level left
[23] = biological target: Serine/threonine-protein kinase TBK1 (Homo sapiens) (UniProt Q9UHD2); assay: Inhibition of human TBK1 assessed as percent of control at 2000 nM by KINOMEscan assay relative to control; parameters: scale not given: the % may be the effect or the level left
[24] = biological target: Tyrosine-protein kinase Tec (Homo sapiens) (UniProt P42680); assay: Inhibition of human TEC assessed as percent of control at 2000 nM by KINOMEscan assay relative to control; parameters: scale not given: the % may be the effect or the level left
[25] = biological target: Non-receptor tyrosine-protein kinase TNK1 (Homo sapiens) (UniProt Q13470); assay: Inhibition of human TNK1 assessed as percent of control at 2000 nM by KINOMEscan assay relative to control; parameters: scale not given: the % may be the effect or the level left
[26] = biological target: Testis-specific serine/threonine-protein kinase 1 (Homo sapiens) (UniProt Q9BXA7); assay: Inhibition of human TSSK1B assessed as percent of control at 2000 nM by KINOMEscan assay relative to control; parameters: scale not given: the % may be the effect or the level left
[27] = biological target: Serine/threonine-protein kinase 32B (Homo sapiens) (UniProt Q9NY57); assay: Inhibition of human YANK2 assessed as percent of control at 2000 nM by KINOMEscan assay relative to control; parameters: scale not given: the % may be the effect or the level left
Myc-CaP = assay: Antitumor activity against murine castration-resistant Myc-CaP cells xenografted in male FVB mouse assessed as suppression of tumor weight in presence of enzalutamide; type: functional
MDA-MB-468 = assay: Antitumor activity against human MDA-MB-468 cells xenografted in female immunodeficient NSG mouse assessed as decrease in tumor weight at 250 ppm, po incorporated into medicated diet for 13 days followed by 5 mg/kg, po dose administered daily and after 37 days administered 8 mg/kg, po dose; type: functional, organism-based
[28] = biological target: Casein kinase I isoform alpha (Homo sapiens) (UniProt P48729); conditions: INHIBITOR, dose 2000.0 nM
Description: Inhibition of human CSNK1A1 at 2000 nM by KINOMEscan assay

Sequence of Tyrosine-protein kinase Lck (Homo sapiens) (P06239 2-509 limits assumed): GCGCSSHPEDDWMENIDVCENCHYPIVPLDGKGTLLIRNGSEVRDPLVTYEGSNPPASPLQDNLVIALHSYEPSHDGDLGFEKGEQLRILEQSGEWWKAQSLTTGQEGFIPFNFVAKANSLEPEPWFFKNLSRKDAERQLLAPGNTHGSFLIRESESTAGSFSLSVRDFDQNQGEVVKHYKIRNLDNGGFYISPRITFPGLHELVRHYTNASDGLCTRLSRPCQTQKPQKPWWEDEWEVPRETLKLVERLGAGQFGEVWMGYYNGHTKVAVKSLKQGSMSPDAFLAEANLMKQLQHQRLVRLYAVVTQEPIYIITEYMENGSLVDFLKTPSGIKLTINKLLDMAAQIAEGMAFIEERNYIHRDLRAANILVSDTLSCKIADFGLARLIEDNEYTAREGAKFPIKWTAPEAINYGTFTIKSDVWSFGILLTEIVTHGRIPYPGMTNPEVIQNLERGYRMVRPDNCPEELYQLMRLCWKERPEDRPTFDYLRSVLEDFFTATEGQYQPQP
Sequence of Atypical kinase COQ8A, mitochondrial (Homo sapiens) (Q8NI60 163-647 limits assumed): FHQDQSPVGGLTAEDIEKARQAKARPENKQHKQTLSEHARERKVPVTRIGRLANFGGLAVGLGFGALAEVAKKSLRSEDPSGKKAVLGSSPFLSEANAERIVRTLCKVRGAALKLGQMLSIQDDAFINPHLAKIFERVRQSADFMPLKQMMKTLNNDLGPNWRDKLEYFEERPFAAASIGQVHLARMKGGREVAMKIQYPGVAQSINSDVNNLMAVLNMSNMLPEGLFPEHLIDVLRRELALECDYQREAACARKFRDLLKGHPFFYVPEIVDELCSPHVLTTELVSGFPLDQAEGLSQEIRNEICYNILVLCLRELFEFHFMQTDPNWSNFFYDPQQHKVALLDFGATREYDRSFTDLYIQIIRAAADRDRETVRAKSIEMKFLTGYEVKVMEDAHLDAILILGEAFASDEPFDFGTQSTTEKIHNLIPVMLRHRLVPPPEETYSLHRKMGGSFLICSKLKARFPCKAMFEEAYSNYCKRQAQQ
Sequence of Epidermal growth factor receptor (Homo sapiens) (P00533 whole entry): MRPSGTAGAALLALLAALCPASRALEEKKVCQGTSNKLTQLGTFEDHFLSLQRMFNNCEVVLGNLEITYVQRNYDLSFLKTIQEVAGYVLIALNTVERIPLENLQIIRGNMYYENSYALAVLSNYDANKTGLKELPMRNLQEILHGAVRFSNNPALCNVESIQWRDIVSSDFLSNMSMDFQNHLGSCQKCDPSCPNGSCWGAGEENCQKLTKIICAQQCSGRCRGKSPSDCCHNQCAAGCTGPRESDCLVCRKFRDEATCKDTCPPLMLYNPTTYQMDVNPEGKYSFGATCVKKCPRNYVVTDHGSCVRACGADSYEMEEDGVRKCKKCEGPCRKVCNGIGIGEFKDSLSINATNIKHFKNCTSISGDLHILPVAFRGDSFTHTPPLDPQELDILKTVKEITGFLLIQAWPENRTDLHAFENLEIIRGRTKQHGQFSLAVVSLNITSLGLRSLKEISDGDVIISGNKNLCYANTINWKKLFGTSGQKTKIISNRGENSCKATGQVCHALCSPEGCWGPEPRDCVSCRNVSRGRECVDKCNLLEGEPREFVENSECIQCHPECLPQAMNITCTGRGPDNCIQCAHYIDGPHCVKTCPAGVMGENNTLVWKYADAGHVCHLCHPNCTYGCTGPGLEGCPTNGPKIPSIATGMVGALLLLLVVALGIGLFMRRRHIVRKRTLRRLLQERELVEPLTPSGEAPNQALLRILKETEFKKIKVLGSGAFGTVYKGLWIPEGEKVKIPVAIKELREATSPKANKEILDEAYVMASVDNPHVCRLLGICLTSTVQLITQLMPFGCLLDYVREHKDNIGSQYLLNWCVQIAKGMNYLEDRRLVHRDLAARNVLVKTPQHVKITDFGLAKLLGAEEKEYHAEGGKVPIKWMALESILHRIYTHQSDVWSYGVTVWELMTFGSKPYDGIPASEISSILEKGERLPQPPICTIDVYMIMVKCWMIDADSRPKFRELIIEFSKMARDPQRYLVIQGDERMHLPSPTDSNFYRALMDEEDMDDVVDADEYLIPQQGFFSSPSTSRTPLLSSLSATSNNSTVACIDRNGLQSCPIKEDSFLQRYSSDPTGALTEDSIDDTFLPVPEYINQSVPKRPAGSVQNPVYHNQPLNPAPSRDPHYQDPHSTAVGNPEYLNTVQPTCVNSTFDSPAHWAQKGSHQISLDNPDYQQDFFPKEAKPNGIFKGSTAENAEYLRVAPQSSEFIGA
Sequence of Ribosomal protein S6 kinase alpha-6 (Homo sapiens) (Q9UK32 whole entry, the tested form may be a part): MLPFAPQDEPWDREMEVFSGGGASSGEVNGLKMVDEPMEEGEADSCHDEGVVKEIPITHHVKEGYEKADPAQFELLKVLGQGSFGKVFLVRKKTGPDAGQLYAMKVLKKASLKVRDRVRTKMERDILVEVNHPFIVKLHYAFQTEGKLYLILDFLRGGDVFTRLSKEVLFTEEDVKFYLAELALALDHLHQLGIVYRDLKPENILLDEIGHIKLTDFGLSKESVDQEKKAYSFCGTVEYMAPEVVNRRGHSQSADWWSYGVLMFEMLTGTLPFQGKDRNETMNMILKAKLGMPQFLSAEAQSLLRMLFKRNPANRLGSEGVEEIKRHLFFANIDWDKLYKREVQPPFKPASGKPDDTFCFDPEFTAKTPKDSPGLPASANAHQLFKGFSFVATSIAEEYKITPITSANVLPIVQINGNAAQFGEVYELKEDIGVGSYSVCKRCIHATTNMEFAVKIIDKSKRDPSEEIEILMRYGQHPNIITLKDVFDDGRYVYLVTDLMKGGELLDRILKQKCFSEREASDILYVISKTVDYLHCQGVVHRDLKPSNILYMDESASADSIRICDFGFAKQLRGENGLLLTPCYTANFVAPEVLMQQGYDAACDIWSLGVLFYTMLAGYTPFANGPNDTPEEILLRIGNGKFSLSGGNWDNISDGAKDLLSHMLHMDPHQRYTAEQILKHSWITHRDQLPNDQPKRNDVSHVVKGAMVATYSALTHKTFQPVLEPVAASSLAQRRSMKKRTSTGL
Sequence of Inhibitor of nuclear factor kappa-B kinase subunit alpha (Homo sapiens) (O15111 whole entry): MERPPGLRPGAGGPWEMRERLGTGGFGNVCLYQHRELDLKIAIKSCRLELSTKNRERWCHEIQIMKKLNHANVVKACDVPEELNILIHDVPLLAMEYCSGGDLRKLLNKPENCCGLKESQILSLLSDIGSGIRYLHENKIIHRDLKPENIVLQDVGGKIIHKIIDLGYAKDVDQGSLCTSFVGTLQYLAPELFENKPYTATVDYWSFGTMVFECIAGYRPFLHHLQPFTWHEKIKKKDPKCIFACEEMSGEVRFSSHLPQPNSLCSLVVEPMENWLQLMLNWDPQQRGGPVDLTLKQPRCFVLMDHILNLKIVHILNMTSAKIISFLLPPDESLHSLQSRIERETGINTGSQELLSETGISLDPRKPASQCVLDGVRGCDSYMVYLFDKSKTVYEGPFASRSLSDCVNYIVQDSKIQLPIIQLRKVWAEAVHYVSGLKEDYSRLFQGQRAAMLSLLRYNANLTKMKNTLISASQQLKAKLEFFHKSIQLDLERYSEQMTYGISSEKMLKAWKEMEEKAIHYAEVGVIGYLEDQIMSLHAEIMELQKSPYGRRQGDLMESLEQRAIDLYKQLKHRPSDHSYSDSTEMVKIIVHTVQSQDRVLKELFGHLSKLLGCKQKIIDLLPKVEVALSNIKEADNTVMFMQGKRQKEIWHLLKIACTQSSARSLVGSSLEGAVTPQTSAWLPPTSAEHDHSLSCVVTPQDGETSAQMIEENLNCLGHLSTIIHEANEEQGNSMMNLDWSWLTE
Sequence of Serine/threonine-protein kinase D3 (Homo sapiens) (O94806 whole entry): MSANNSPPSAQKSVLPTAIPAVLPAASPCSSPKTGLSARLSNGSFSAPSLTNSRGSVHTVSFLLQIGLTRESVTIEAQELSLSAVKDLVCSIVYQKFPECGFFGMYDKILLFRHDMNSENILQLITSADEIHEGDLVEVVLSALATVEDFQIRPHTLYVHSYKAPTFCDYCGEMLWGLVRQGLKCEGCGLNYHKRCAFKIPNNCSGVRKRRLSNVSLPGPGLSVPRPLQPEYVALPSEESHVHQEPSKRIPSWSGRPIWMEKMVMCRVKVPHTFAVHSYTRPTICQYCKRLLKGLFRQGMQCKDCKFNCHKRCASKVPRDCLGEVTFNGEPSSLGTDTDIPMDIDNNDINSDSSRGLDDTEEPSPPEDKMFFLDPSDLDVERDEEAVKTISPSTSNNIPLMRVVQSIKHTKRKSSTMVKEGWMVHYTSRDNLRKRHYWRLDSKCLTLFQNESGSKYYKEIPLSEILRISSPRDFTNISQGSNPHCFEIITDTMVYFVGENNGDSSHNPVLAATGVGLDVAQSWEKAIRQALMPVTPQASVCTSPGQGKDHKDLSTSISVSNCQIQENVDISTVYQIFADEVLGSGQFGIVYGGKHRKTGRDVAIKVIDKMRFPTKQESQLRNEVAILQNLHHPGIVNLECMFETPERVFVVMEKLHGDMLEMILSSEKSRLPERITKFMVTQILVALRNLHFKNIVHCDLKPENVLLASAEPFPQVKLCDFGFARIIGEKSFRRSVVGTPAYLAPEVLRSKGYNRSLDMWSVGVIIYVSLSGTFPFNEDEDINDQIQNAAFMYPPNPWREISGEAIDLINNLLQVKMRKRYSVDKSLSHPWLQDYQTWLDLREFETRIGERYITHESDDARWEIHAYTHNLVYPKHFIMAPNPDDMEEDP
Sequence of Testis-specific serine/threonine-protein kinase 1 (Homo sapiens) (Q9BXA7 whole entry): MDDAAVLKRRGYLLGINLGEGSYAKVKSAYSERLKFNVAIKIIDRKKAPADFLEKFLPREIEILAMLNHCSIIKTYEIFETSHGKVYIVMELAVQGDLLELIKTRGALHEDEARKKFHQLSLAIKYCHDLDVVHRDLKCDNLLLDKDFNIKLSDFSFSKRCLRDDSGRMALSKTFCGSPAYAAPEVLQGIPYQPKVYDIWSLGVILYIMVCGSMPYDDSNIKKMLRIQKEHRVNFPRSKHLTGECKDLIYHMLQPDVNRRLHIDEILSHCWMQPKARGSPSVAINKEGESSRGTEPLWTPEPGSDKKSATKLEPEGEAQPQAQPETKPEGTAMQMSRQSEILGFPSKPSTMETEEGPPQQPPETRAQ

CN(C)C(=O)c1ccc(N2CCCN(c3ccnc4sc(C(N)=O)c(N)c34)CC2)cc1
Activity [1]: 90% and 100% | Activity [2]: 100% and 96% | Activity [3]: 90% and 100% | Activity [4]: 90% and 80% | Activity [5]: 100% and 87% | Activity [6]: 100% and 96% | Activity [7]: 82% and 72% | Activity [8]: 73% and 88% | Activity [9]: 77% and 90% | Activity [10]: 91% and 100% | Activity [11]: 100% and 96% | Activity [12]: 100% | Activity [13]: 100% and 76% | Activity [14]: 98% | Activity [15]: 89% and 98% | Activity [16]: 100% | Activity [17]: 64% | Activity ([17]; INHIBITOR): 25% | Activity [18]: 94% and 100% | Activity [19]: 100% and 88% | Activity [20]: 97% and 100% | Activity [21]: 98% | Activity [22]: 78% and 80% | Activity [23]: 99% and 97% | Activity [24]: 91% and 81% | Activity [25]: 100% | Activity [26]: 80% and 99% | Activity [27]: 89% and 84% | Activity (Myc-CaP): Active | Activity (MDA-MB-468): Active | inhibition [28]: > 65%
